The test system of experiment [1] is c-MYC (DNA, G4) GGGGAGGGTGGGGAGGGTGGGGAAGG
The experiment in a line: UV melting at 295 nm. To be noted: 140 mM NaCl, 0.5 mM KCl; 20 mM Tris-HCl pH 7.3; 2 equivalents of compound, ~3 µM DNA.

The test system is the same in experiment [2]. The experiment is described as follows: thiazole orange displacement (G4-FID). To be noted: 100 mM KCl; 10 mM sodium cacodylate pH 7.3, 18 °C; thiazole orange displaced; from DC50, TO Kb 1.50 × 10^6.
Experiment [3] has as its system WNT1 (DNA, G4) GGGGGCCACCGGGCAGGGGGCGGGGG
The experiment is described as follows: thiazole orange displacement (G4-FID). Particulars: 100 mM KCl; 10 mM sodium cacodylate pH 7.3, 18 °C; thiazole orange displaced; from DC50, assumed TO Kb 2.5 × 10^6.

Experiment [4] has as its system VEGF (VEGFA) (DNA, G4) GGGGCGGGCCGGGGGCGGGG
The experiment in a line: thiazole orange displacement (G4-FID). Particulars: 100 mM KCl; 10 mM sodium cacodylate pH 7.3, 18 °C; thiazole orange displaced; from DC50, assumed TO Kb 2.5 × 10^6.

For experiment [5], the system named is c-KIT (DNA, G4) GGGAGGGCGCTGGGAGGAGGG
The experiment is described as follows: thiazole orange displacement (G4-FID). Particulars: 100 mM KCl; 10 mM sodium cacodylate pH 7.3, 18 °C; thiazole orange displaced; from DC50, assumed TO Kb 2.5 × 10^6.

Experiment [6] deals with BCL2 (DNA, G4) AGGGGCGGGCGCGGGAGGAAGGGGGCGGGAGCGGGGC
The experiment in a line: thiazole orange displacement (G4-FID). Particulars: 100 mM KCl; 10 mM sodium cacodylate pH 7.3, 18 °C; thiazole orange displaced; from DC50, assumed TO Kb 2.5 × 10^6.

The subject of experiment [7] is KRAS (DNA, G4) GGGCGGTGTGGGAAGAGGGAAGAGGGGGAGG
The experiment in a line: thiazole orange displacement (G4-FID). Particulars: 100 mM KCl; 10 mM sodium cacodylate pH 7.3, 18 °C; thiazole orange displaced; from DC50, assumed TO Kb 2.5 × 10^6.

Experiment [8] relates to Tel (DNA, G4) GGGTTAGGGTTAGGGTTAGGGTTA
The experiment is described as follows: thiazole orange displacement (G4-FID). Particulars: 100 mM KCl; 10 mM sodium cacodylate pH 7.3, 18 °C; thiazole orange displaced; from DC50, TO Kb 2.62 × 10^6.

Experiment [9] relates to DNA hairpin (DNA, hairpin) CAATCGGATCGAATTCGATCCGATTG
The experiment is described as follows: thiazole orange displacement (G4-FID). To be noted: 100 mM KCl, 10 mM sodium cacodylate pH 7.3, 18 °C, thiazole orange displaced; for Kb: from DC50, TO Kb 3.03 × 10^6.

Experiment [10] deals with c-MYC (DNA, G4) GGGGAGGGTGGGGAGGGTGGGGAAGG
The experiment in a line: thiazole orange displacement (G4-FID). Particulars: 100 mM KCl; 10 mM sodium cacodylate pH 7.3, 18 °C; 1 µM thiazole orange displaced, 0.5 µM DNA.

In experiment [11] the test system is WNT1 (DNA, G4) GGGGGCCACCGGGCAGGGGGCGGGGG
The experiment is described as follows: thiazole orange displacement (G4-FID). Particulars: 100 mM KCl, 10 mM sodium cacodylate pH 7.3, 18 °C.

In experiment [12] the test system is VEGF (VEGFA) (DNA, G4) GGGGCGGGCCGGGGGCGGGG
The experiment in a line: thiazole orange displacement (G4-FID). To be noted: 100 mM KCl, 10 mM sodium cacodylate pH 7.3, 18 °C.

Experiment [13] has as its system c-KIT (DNA, G4) GGGAGGGCGCTGGGAGGAGGG
The experiment is described as follows: thiazole orange displacement (G4-FID). Particulars: 100 mM KCl, 10 mM sodium cacodylate pH 7.3, 18 °C.

Experiment [14] relates to BCL2 (DNA, G4) AGGGGCGGGCGCGGGAGGAAGGGGGCGGGAGCGGGGC
The experiment is described as follows: thiazole orange displacement (G4-FID). Particulars: 100 mM KCl, 10 mM sodium cacodylate pH 7.3, 18 °C.

Experiment [15] has as its system KRAS (DNA, G4) GGGCGGTGTGGGAAGAGGGAAGAGGGGGAGG
The experiment is described as follows: thiazole orange displacement (G4-FID). Particulars: 100 mM KCl, 10 mM sodium cacodylate pH 7.3, 18 °C.

The subject of experiment [16] is Tel (DNA, G4) GGGTTAGGGTTAGGGTTAGGGTTA
The experiment is described as follows: thiazole orange displacement (G4-FID). To be noted: 100 mM KCl, 10 mM sodium cacodylate pH 7.3, 18 °C.

In experiment [17] the test system is DNA hairpin (DNA, hairpin) CAATCGGATCGAATTCGATCCGATTG
The experiment in a line: thiazole orange displacement (G4-FID). To be noted: 100 mM KCl, 10 mM sodium cacodylate pH 7.3, 18 °C.

Where [18] appears, read: 1 µM thiazole orange displaced, 0.5 µM DNA.
[19] abbreviates: thiazole orange displaced, above highest stated concentration (10 µM).
Where [20] appears, read: thiazole orange displaced, highest concentration 10 µM.

Consider `O=c1c(O)c(-c2ccc(O)c(O)c2)oc2cc(O)cc(O)c12`, for which, in [1], the “increase in Tm” value is 3.0 ± 0.3 °C. For the same molecule, the Kb in experiment [2] is recorded as 5.33 ± 0.36 × 10^6 M^-1; in experiment [3] it was 2.07 ± 0.30 × 10^6 M^-1; in [4], 3.10 ± 0.44 × 10^6 M^-1; in experiment [5], 3.80 ± 0.54 × 10^6 M^-1; in experiment [6], 5.56 ± 0.79 × 10^6 M^-1; in [7], 1.72 ± 0.25 × 10^6 M^-1. Also, the Kb in experiment [8] is recorded as 7.43 ± 0.55 × 10^6 M^-1; in [9], 0.038 ± 0.004 × 10^6 M^-1. Moreover, the DC50 in [10] worked out at 470 ± 30 nM; in experiment [11] (setting [18]), 1690 ± 240 nM; in experiment [12] (setting [18]), 1130 ± 160 nM; in experiment [13] (setting [18]) it was 920 ± 130 nM; in experiment [14] (setting [18]), 630 ± 90 nM; in [15] (setting [18]), 2030 ± 300 nM. The DC50 worked out at 490 ± 40 nM in [16] (setting [18]) and 105260 ± 11080 nM in experiment [17] (setting [19]).
Regarding `O=C(O[C@@H]1Cc2c(O)cc(O)cc2O[C@@H]1c1cc(O)c(O)c(O)c1)c1cc(O)c(O)c(O)c1`, the Kb in experiment [2] is 2.94 ± 0.20 × 10^6 M^-1; in experiment [3] it was 2.75 ± 0.39 × 10^6 M^-1; in experiment [4], 1.75 ± 0.25 × 10^6 M^-1; in [5], 1.44 ± 0.21 × 10^6 M^-1; in experiment [6] it was 3.65 ± 0.52 × 10^6 M^-1; in experiment [7] it was 1.62 ± 0.23 × 10^6 M^-1. For the same molecule, in [8], the Kb was 1.81 ± 0.14 × 10^6 M^-1. In addition, the DC50 is 850 ± 60 nM in experiment [10]; 1270 ± 180 nM in experiment [11] (setting [18]); 2000 ± 280 nM in [12] (setting [18]); 2430 ± 350 nM in experiment [13] (setting [18]); 960 ± 140 nM in experiment [14] (setting [18]); 2160 ± 310 nM in experiment [15] (setting [18]). The molecule also yielded a DC50 in [16] (setting [18]) of 2000 ± 150 nM.
In the case of `COc1cc(/C=C/C(=O)CC(=O)/C=C/c2ccc(O)c(OC)c2)ccc1O`, the Kb in experiment [2] is on record as 0.26 ± 0.02 × 10^6 M^-1. For the same molecule, the DC50 in experiment [10] was 9620 ± 700 nM; in experiment [11] (setting [20]) it was more than 10000 nM; in experiment [12] (setting [20]), more than 10000 nM; in experiment [13] (setting [20]), more than 10000 nM; in experiment [14] (setting [20]), more than 10000 nM; in [15] (setting [20]) it was more than 10000 nM. This molecule also displayed a DC50 in [16] (setting [20]) of more than 10000 nM.
On to `CC1=CC(=O)C(C(C)C)=CC1=O`, for which the Kb is given as 0.63 ± 0.04 × 10^6 M^-1 in [2]; 2.71 ± 0.39 × 10^6 M^-1 in [3]; 1.50 ± 0.21 × 10^6 M^-1 in experiment [4]; 1.61 ± 0.23 × 10^6 M^-1 in experiment [5]; 2.87 ± 0.41 × 10^6 M^-1 in experiment [6]; 1.52 ± 0.22 × 10^6 M^-1 in experiment [7]. The Kb in experiment [8] is listed as 1.68 ± 0.13 × 10^6 M^-1. Moreover, the binding entry in experiment [9] (Kb printed as 0, up to 10 µM) was “no”. Further, the DC50 in [10] was 3970 ± 250 nM; in experiment [11] (setting [18]), 1290 ± 190 nM; in experiment [12] (setting [18]) it was 2330 ± 330 nM; in experiment [13] (setting [18]), 2170 ± 310 nM; in experiment [14] (setting [18]), 1220 ± 100 nM; in [15] (setting [18]), 2300 ± 330 nM. For the same molecule, the DC50 in experiment [16] (setting [18]) came out at 2150 ± 170 nM.
Regarding `O=c1c(O)c(-c2ccc(O)cc2)oc2cc(O)cc(O)c12`, the Kb in experiment [2] was 1.16 ± 0.08 × 10^6 M^-1; in [3], 3.03 ± 0.43 × 10^6 M^-1; in [4], 2.09 ± 0.30 × 10^6 M^-1; in experiment [5], 1.63 ± 0.23 × 10^6 M^-1; in experiment [6] it was 1.75 ± 0.25 × 10^6 M^-1; in experiment [7] it was 1.63 ± 0.23 × 10^6 M^-1. Further, the figures for the Kb in experiment [8] and in experiment [9] were 1.81 ± 0.14 × 10^6 M^-1 and 0.035 ± 0.002 × 10^6 M^-1, respectively. Moreover, the DC50 in [10] was 2160 ± 150 nM; in [11] (setting [18]) it was 1160 ± 160 nM; in experiment [12] (setting [18]), 1670 ± 240 nM; in experiment [13] (setting [18]) it was 2150 ± 300 nM; in [14] (setting [18]) it was 2000 ± 280 nM; in [15] (setting [18]) it was 2150 ± 310 nM. The DC50 in experiment [16] (setting [18]) is 2000 ± 150 nM; in experiment [17] (setting [19]), 114290 ± 6530 nM.
For the molecule `C[n+]1cc2c3c(ccc2c2ccc4cc5c(cc4c21)OCO5)OCO3`, the “increase in Tm” value in experiment [1] came to 3.5 ± 0.3 °C. For the same molecule, the Kb in [2] is 7.76 ± 0.53 × 10^6 M^-1; in experiment [3] it was 2.83 ± 0.40 × 10^6 M^-1; in [4], 0.86 ± 0.12 × 10^6 M^-1; in experiment [5], 3.28 ± 0.47 × 10^6 M^-1; in [6] it was 4.12 ± 0.59 × 10^6 M^-1; in experiment [7], 0.93 ± 0.13 × 10^6 M^-1. Also, the figures for the Kb in experiment [8] and in experiment [9] were 0.43 ± 0.03 × 10^6 M^-1 and 1.30 ± 0.17 × 10^6 M^-1, respectively. For the same molecule, the DC50 in [10] came to 320 ± 20 nM; in experiment [11] (setting [18]), 1240 ± 170 nM; in experiment [12] (setting [18]), 4070 ± 570 nM; in [13] (setting [18]), 1070 ± 150 nM; in experiment [14] (setting [18]), 850 ± 120 nM; in experiment [15] (setting [18]), 3760 ± 530 nM. Further, the DC50 amounted to 8420 ± 590 nM in [16] (setting [18]) and 3080 ± 400 nM in [17] (setting [18]).
